Legend:
[1] = xn = mol fraction of the nth substance listed; conditions: 294 K; for mass density / viscosity: 101 kPa, Liquid; for mass density: Vibrating tube method
[2] = refractive index (Na D-line) (dimensionless); xn = mol fraction of the nth substance listed; conditions: 294 K, 101 kPa, Liquid, Standard Abbe refractometry

CCO [ethanol] + OCC(O)CO
x1 = 1
Conditions	mass density [kg/m3]	refractive index	surface tension liquid-gas [mN/m]	viscosity [mPa·s]
[1]	789.91	–	22.2	1.214
[2]	–	1.3618	–	–

OCC(O)CO [glycerol] + CCO
Conditions	mass density, [1] [kg/m3]	refractive index, [2]	surface tension liquid-gas, [1] [mN/m]	viscosity, [1] [mPa·s]
x2 = 0	1261.51	1.474	63.1	1390
x2 = 0.084	1233.48	1.468	52	800.5
x2 = 0.1222	1220.3	1.466	48.8	627.9
x2 = 0.1761	1201.19	1.4619	43	450
x2 = 0.2037	1191.35	1.4592	41.7	385.1
x2 = 0.2385	1178.37	1.4562	39.4	270
x2 = 0.2789	1162.98	1.4528	35.8	220.5
x2 = 0.351	1134.3	1.447	33.2	141.4
x2 = 0.4138	1108.32	1.4392	29.7	80.71
x2 = 0.4841	1077.53	1.4326	28.5	54.01
x2 = 0.5497	1047.03	1.4253	27.1	31.52
x2 = 0.6046	1020.27	1.4179	25.1	20.31
x2 = 0.6526	995.96	1.4131	24.3	16.7
x2 = 0.7451	946.41	1.4016	23.5	9.096
x2 = 0.7984	916.05	1.3934	23.5	5.217
x2 = 0.8336	895.63	1.3885	23	4.1
x2 = 0.8777	868.79	1.3815	22.5	3.037
x2 = 0.9353	832.89	1.3727	22.4	1.898
x2 = 0.9596	816.85	1.3681	22.3	1.49

From the NIST ThermoML archive (doi:10.1021/je8004479)
